The term IC50 denotes the concentration that inhibits the measured activity by half.

The source of these data is patent publication US20240002368A1 (QILU REGOR THERAPEUTICS INC., priority 2020, published 2024).

The first test relates to STING pathway. Briefly: IFN β reporter assay (HTRF, 2′3′-cGAMP-stimulated THP1 cells). Conditions: Homo sapiens, THP-1, THP1 cells, 5 μM 2′3′-cGAMP, IFN β secretion inhibition; class symbols; read-out: IFN β reporter activity IC50. It counts as cell-based, human. The procedure: STING pathway deactivation by the compounds described herein was measured using THP1 cells. The THP1 Cells (obtained from ATCC, Cat #TIB-202) were maintained in RPMI-1640 (Gibco, Cat #22400105), 10% FBS, 1% Pen-Strep, 0.05 mM 2-mercaptoethanol. For STING activation, 2′3′-cGAMP (MW 718.38, obtained from Invivogen) was used and prepared in serum-free RPMI-1640 media. Growth media: RPMI-1640 (HEPES, glutamine), 10% FBS, 1% Pen-Strep, 0.05 mM 2-mercaptoethanol. Assay media: RPMI-1640 (HEPES, glutamine), 0.5% FBS. 2′3′-cGAMP: Dissolve 2′3′-cGAMP to 10 mM stock in H2O.
The cells were prepared and seeded at 100K, 90 μL/well with assay media in cell culture plate (Greiner 655180). The compounds were added in 96-well tissue culture plates by Tecan D300e for a final concentration of 0.00137-3 μM.
Lipo2000/3000 and 2′3′-cGAMP stock solutions were diluted respectively in serum-free RPMI-1640 media. The diluted 2′3′-cGAMP and Lipo (V/V=1:1) were mixed and stood for 15 min at room temperature. 10 μL 2,3-cGAMP/Lipofectamine (10×) was transferred to the 96-well assay plate with a final 2′3′-cGAMP concentration of 5 μM. The cell plates were centrifuged at 1000 rpm for 5 min after incubating at 37° C., 5% CO2 overnight.
All reagents (human IFN beta kit, Cisbio 62HIFNBPEG) were warmed to room temperature for at least 30 min before the assay. The instructions of the kit were followed to prepare the detection media. 14 μL of cell supernatants was transferred into their dedicated wells in 384-well plate. Then 2 μL of the activation reagent solution and 4 μL of the mixed antibody solution were added to all wells. The plate was sealed and incubated for 3 h at room temperature.
The HTRF signal was read in Envision (PerkinElmer). IFN β reporter activity was then measured. The calculated ratio is the signal at 665 nm/signal at 615 nm. IC50 values are calculated by using standard methods known in the art.
On the technique in general: A reporter such as luciferase makes a cellular process visible.
As to `CCCCc1ccc2c(C(=O)Nc3c[nH]c4ccc(F)cc34)n[nH]c2c1` [Example 61], the IC50 lay within 0.05 to 0.2 µM.
Still for that read-out and setting: under `O=C(Nc1c[nH]c2cc(F)c(F)cc12)c1cc2ccccc2[nH]1` [Example 65] stands < 0.05 µM.
Turning to `CN(Cc1cc2c(cc1F)c(C(=O)Nc1c[nH]c3ccc(F)cc13)cn2C)CC(F)(F)F` [Example 92, 5-fluoro-N-(5-fluoro-1H-indol-3-yl)-1-methyl-6-[[methyl(2,2,2-trifluoroethyl)amino]methyl]indole-3-carboxamide], the half-maximal inhibitory concentration (IC50) lay within 0.05 to 0.2 µM.
For `COC(=O)c1ccc2[nH]cc(NC(=O)c3cn(C)c4cc(C(F)(F)F)ccc34)c2c1` [Example 33], the IC50 was in the range of 0.05 to 0.2 µM.
On the same count and under the same terms, to `O=C(Nc1c[nH]c2ccc(F)cc12)c1n[nH]c2cc(OC(F)(F)F)ccc12` [Example 11] belongs 0.2 to 1 µM; to `O=C(Nc1c[nH]c2ccc(F)cc12)c1n[nH]c2cc(Cl)c(Cl)cc12` [Example 12], < 0.05 µM.
For the molecule `Cn1cc(C(=O)Nc2c[nH]c3ccc(F)cc23)c2cc(F)c(C3=CCOCC3)cc21` [Example 80], the half-inhibitory concentration (IC50) lay within 0.05 to 0.2 µM.
Same read-out and setting: under `CN1CCC(c2cc3c(cc2Cl)c(C(=O)Nc2c[nH]c4ccc(C#N)cc24)cn3C)CC1` [Example 120, 5-chloro-N-(5-cyano-1H-indol-3-yl)-1-methyl-6-(1-methyl-4-piperidyl)indole-3-carboxamide] stands > 1 µM.

Still in this test, the particulars now being: Homo sapiens, THP-1, read-out: IFN β reporter activity IC50.
`N#Cc1ccc2[nH]cc(NC(=O)c3cn(C4CC4)c4nc(O[C@H]5CCOC5)ccc34)c2c1` [Example 42]: the IC50 is 0.2 to 1 µM.

In the next test the test system is Trex1−/− mice.
Assay: not given
The following applies: given to Trex1−/− mice; cited from earlier work.
On to `CCN(CCO)CCCC(C)Nc1ccnc2cc(Cl)ccc12` (stereo not shown) [hydrochloroquine], for which the “development of experimental autoimmune myocarditis” value is listed as “prevents”.
